Data: patent US20230257372A1 (CHONG KUN DANG PHARMACEUTICAL CORP., priority 2020, published 2023)
Like-named read-outs stand apart in the source and are kept apart here.

How the values were obtained:
[1] = target: T1, human recombinant HDAC1 (Homo sapiens, UniProt Q13547); assay: HDAC1 enzyme activity inhibition (HDAC Fluorimetric Drug Discovery Kit); assay type: biochemical; conditions: read-out: HDAC1
T1 construct: purchased Enzo Life Science, Inc. BML-SE456
Method in brief: (§1)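 Compounds in 5-fold dilution series were incubated with […] enzyme and 10 μM substrate at 30° C for 60 minutes. Fluor de Lys Developer II was then added for 30 minutes to stop the reaction and develop the fluorescent signal.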

[2] = target: T2, human recombinant HDAC6 (Homo sapiens, UniProt Q9UBN7); assay: HDAC6 enzyme activity inhibition (HDAC Fluorimetric Drug Discovery Kit); assay type: biochemical
T2 construct: purchased Calbiochem Inc. 382180
T2 sequence (Q9UBN7 1-1215): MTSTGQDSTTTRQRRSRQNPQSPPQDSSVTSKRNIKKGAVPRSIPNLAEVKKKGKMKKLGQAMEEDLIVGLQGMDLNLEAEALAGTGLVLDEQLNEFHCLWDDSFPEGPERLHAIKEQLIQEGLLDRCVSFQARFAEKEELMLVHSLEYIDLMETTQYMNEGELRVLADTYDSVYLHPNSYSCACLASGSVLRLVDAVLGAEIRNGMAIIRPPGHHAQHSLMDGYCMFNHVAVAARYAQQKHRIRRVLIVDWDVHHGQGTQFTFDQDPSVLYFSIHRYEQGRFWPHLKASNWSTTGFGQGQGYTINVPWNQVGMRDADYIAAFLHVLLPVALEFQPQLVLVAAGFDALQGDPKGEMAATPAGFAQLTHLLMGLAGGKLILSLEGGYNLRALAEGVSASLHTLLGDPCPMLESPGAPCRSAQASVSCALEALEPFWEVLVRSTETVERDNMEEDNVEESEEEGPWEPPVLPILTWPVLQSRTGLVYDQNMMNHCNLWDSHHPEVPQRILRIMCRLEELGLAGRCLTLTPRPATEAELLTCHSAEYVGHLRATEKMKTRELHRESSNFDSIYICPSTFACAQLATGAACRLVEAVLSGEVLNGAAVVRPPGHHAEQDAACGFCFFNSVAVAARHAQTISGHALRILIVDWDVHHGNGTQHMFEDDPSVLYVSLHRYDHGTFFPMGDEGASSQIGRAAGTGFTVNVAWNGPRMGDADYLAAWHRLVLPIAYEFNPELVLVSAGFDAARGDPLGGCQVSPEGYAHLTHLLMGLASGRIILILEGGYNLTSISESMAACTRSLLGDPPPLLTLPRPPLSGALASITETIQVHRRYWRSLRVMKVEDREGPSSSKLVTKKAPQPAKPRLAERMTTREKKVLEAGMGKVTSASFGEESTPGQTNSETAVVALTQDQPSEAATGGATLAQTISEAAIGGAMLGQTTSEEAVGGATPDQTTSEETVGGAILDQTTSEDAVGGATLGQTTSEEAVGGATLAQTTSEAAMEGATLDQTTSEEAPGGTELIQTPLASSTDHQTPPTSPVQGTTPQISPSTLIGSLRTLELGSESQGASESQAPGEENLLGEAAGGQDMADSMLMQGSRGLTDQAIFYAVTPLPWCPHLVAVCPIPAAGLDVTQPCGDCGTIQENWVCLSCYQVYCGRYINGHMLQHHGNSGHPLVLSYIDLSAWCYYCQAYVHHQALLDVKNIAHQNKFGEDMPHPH
Method in brief: as §1

[3] = system: hippocampal neurons from a Sprague-Dawley (SD) rat fetus; assay: Effect of HDAC6-specific inhibitor on axonal transport of mitochondria in amyloid-beta treated neurons; assay type: cell-based; conditions: transport velocity of mitochondria in neuronal axon after normalization; vehicle = 100%, amyloid beta treatment group = 0%; compound treatment for three hours
Method: On the 17th to 18th days (E17-18) of insemination, the hippocampal neurons from a Sprague-Dawley (SD) rat fetus were cultured in a culture container for imaging, which had been coated with extracellular matrix, and were treated with amyloid-beta protein fragments at a concentration of […]. In 24 hours later, the neurons were treated with the compound on the 8th day of in vitro culture. In three hours later, the resulting neurons were treated with MitoTracker Red CMXRos (Life Technologies, NY, USA) for last five minutes to stain mitochondria. An image on the axonal transport of stained neuron mitochondria was taken with a confocal microscope (Leica SP8; Leica microsystems, UK) at an interval of one second for one minute to measure a transport velocity of each mitochondria per second with an IMARIS analysis program (BITPLANE, Zurich, Switzerland).
In result, after setting a section, in which the group treated with amyloid-beta had shown a significant decrease in the transport velocity of mitochondria compared to a vehicle, it was confirmed for 1,3,4-oxadiazole triazol derivative compounds of the present invention, stereoisomers thereof or pharmaceutically acceptable salts thereof that the vehicles is represented as 100%, the amyloid beta treatment group is represented as 0%, a velocity distribution of the compound after normalization is represented as *, 0%˜50%; **, 50%˜100%; ***, >100%.

[4] = human recombinant HDAC1, IC50 calculated with GraphPad Prism
[5] = human recombinant HDAC6, IC50 calculated with GraphPad Prism
[6] = human recombinant HDAC1, Fluor de Lys substrate, 30° C. 60 minutes
[7] = human recombinant HDAC6, same protocol as HDAC1

T1 sequence (Q13547 whole entry): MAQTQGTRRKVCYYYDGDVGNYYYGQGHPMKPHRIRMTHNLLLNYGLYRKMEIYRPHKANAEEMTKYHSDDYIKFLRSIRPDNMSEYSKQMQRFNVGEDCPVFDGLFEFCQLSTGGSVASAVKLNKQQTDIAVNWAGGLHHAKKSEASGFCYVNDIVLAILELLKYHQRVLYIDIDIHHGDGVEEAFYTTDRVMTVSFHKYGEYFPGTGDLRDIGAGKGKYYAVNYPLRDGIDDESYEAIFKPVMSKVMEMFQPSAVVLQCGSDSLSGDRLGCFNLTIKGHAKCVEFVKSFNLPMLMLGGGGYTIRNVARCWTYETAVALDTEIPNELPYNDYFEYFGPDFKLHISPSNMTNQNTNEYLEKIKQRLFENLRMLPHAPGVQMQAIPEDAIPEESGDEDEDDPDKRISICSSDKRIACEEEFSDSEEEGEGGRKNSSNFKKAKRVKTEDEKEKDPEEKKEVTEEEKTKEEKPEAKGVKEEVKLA

Compound | IC50 [1, 4] | HDAC6 selectivity (fold) ([2]; HDAC1 IC50 / HDAC6 IC50) | IC50 [2, 5] | IC50 [1, 6] | HDAC6 selectivity (fold) ([2]; HDAC6 over HDAC1) | IC50 [2, 7] | Velocity distribution (%) [3]
CN(C)Cc1ccc(-c2cn(Cc3ccc(-c4nnc(C(F)F)o4)cc3F)nn2)nc1 [Compound 17534, 1-(6-(1-(4-(5-(difluoromethyl)-1,3,4-oxadiazol-2-yl)-2-fluorobenzyl)-1H-1,2,3-triazol-4-yl)pyridin-3-yl)-N,N-dimethylmethanamine] | – | – | – | > 50 µM | 1319 fold | 0.0379 µM | *** (***, >100%)
CN(C)Cc1ccc(-c2cn(Cc3ccc(-c4nnc(C(F)F)o4)cc3F)nn2)cn1 [Compound 18176, 1-(5-(1-(4-(5-(difluoromethyl)-1,3,4-oxadiazol-2-yl)-2-fluorobenzyl)-1H-1,2,3-triazol-4-yl)pyridin-2-yl)-N,N-dimethylmethanamine] | – | – | – | > 50 µM | 705 fold | 0.0709 µM | ** (**, 50%˜100%)
Fc1cc(-c2nnc(C(F)F)o2)ccc1Cn1cc(-c2ccc3[nH]ccc3c2)nn1 [Compound 4135, 2-(4-((4-(1H-indol-5-yl)-1H-1,2,3-triazol-1-yl)methyl)-3-fluorophenyl)-5-(difluoromethyl)-1,3,4-oxadiazole] | > 50 µM | 2941 fold | 0.0167 µM | – | – | – | ** (**, 50%˜100%)
FC(F)c1nnc(-c2ccc(Cn3cc(-c4ccc5c(CN6CCOCC6)c[nH]c5c4)nn3)nc2)o1 [Compound 3944, 4-((6-(1-((5-(5-(difluoromethyl)-1,3,4-oxadiazol-2-yl)pyridin-2-yl)methyl)-1H-1,2,3-triazol-4-yl)-1H-indol-3-yl)methyl)morpholine] | > 50 µM | 7462 fold | 0.0067 µM | – | – | – | * (*, 0%˜50%)
Fc1cc(-c2nnc(C(F)F)o2)ccc1Cn1cc(-c2ccc(CN3CCC3)cn2)nn1 [Compound 17532, 2-(4-((4-(5-(azetidin-1-yl-methyl)pyridin-2-yl)-1H-1,2,3-triazol-1-yl)methyl)-3-fluorophenyl)5-(difluoromethyl)-1,3,4-oxadiazole] | – | – | – | > 50 µM | 2100 fold | 0.0238 µM | *** (***, >100%)
CC1CCN(Cc2ccc(-c3cn(Cc4ncc(-c5nnc(C(F)F)o5)cc4F)nn3)cc2)CC1 [Compound 18307, 2-(difluoromethyl)-5-(5-fluoro-6-((4-(4-((4-methylpiperidin-1-yl)methyl)phenyl)-1H-1,2,3-triazol-1-yl)methyl)pyridin-3-yl)-1,3,4-oxadiazole] | – | – | – | > 50 µM | 1028 fold | 0.0486 µM | *** (***, >100%)
FC(F)c1nnc(-c2ccc(Cn3cc(-c4ccccn4)nn3)nc2)o1 [Compound 3881, 2-(difluoromethyl)-5-(6-((4-(pyridin-2-yl)-1H-1,2,3-triazol-1-yl)methyl)pyridin-3-yl)-1,3,4-oxadiazole] | > 50 µM | 1470 fold | 0.034 µM | – | – | – | *** (***, >100%)
FC(F)c1nnc(-c2ccc(Cn3cc(-c4cccc(N5CCOCC5)c4)nn3)nc2)o1 [Compound 3866, 4-(3-(1-((5-(5-(difluoromethyl)-1,3,4-oxadiazol-2-yl)pyridin-2-yl)methyl)-1H-1,2,3-triazol-4-yl)phenyl)morpholin] | > 50 µM | 2688 fold | 0.0186 µM | – | – | – | ** (**, 50%˜100%)
FC(F)c1nnc(-c2ccc(Cn3cc(-c4cccc5[nH]ncc45)nn3)nc2)o1 [Compound 4346, 2-(6-((4-(1H-indazol-4-yl)-1H-1,2,3-triazol-1-yl)methyl)pyridin-3-yl)-5-(difluoromethyl)-1,3,4-oxadiazole] | > 50 µM | 9090 fold | 0.0055 µM | – | – | – | *** (***, >100%)

Now from value to compound, other results behind:

IC50 [1, 4] | HDAC6 selectivity (fold) ([2]; HDAC1 IC50 / HDAC6 IC50) | IC50 [2, 5] | IC50 [1, 6] | HDAC6 selectivity (fold) ([2]; HDAC6 over HDAC1) | IC50 [2, 7] | Compound | Velocity distribution (%) [3]
> 50 µM | 822 fold | 0.0608 µM | – | – | – | FC(F)c1nnc(-c2ccc(Cn3cc(-c4ccc5occc5c4)nn3)nc2)o1 [Compound 4073, 2-(6-((4-(benzofuran-5-yl)-1H-1,2,3-triazol-1-yl)methyl)pyridin-3-yl)-5-(difluoromethyl)-1,3,4-oxadiazole] | ** (**, 50%˜100%)
> 50 µM | 2369 fold | 0.0211 µM | – | – | – | CN1CCC(c2cccc(-c3cn(Cc4ccc(-c5nnc(C(F)F)o5)cn4)nn3)c2)CC1 [Compound 4010, 2-(difluoromethyl)-5-(6-((4-(3-(1-methylpiperidin-4-yl)phenyl)-1H-1,2,3-triazol-1-yl)methyl)pyridin-3-yl)-1,3,4-oxadiazole] | *** (***, >100%)
> 50 µM | 1298 fold | 0.0385 µM | – | – | – | CC(C)N1CCN(c2cccc(-c3cn(Cc4ccc(-c5nnc(C(F)F)o5)cn4)nn3)c2)CC1 [Compound 4070, 2-(difluoromethyl)-5-(6-((4-(3-(4-isopropylpiperazin-1-yl)phenyl)-1H-1,2,3-triazol-1-yl)methyl)pyridin-3-yl)-1,3,4-oxadiazole] | ** (**, 50%˜100%)
> 50 µM | 1196 fold | 0.0418 µM | – | – | – | FC(F)c1nnc(-c2ccc(Cn3cc(-c4cccc(NC5CCCCC5)c4)nn3)nc2)o1 [Compound 3828, N-cyclohexyl-3-(1-((5-(5-(difluoromethyl)-1,3,4-oxadiazol-2-yl)pyridin-2-yl)methyl)-1H-1,2,3-triazol-4-yl)aniline] | * (*, 0%˜50%)
> 50 µM | 4587 fold | 0.0109 µM | – | – | – | CC1CCN(Cc2c[nH]c3cc(-c4cn(Cc5ccc(-c6nnc(C(F)F)o6)cn5)nn4)ccc23)CC1 [Compound 4111, 2-(difluoromethyl)-5-(6-((4-(3-((4-methylpiperidin-1-yl)methyl)-1H-indol-6-yl)-1H-1,2,3-triazol-1-yl)methyl)pyridin-3-yl)-1,3,4-oxadiazole] | ** (**, 50%˜100%)
> 50 µM | 416 fold | 0.012 µM | – | – | – | Cc1cc2cc(-c3cn(Cc4ccc(-c5nnc(C(F)F)o5)cn4)nn3)ccc2[nH]1 [Compound 4289, 2-(difluoromethyl)-5-(6-((4-(2-methyl-1H-indol-5-yl)-1H-1,2,3-triazol-1-yl)methyl)pyridin-3-yl)-1,3,4-oxadiazole] | *** (***, >100%)
> 50 µM | 2252 fold | 0.0222 µM | – | – | – | FC(F)c1nnc(-c2ccc(Cn3cc(-c4cncc(Br)c4)nn3)nc2)o1 [Compound 4182, 2-(6-((4-(5-bromopyridin-3-yl)-1H-1,2,3-triazol-1-yl)methyl)pyridin-3-yl)-5-(difluoromethyl)-1,3,4-oxadiazole] | ** (**, 50%˜100%)
